Results reported in patent publication US5045302A, “Ligands and cationic complexes thereof with technetium-99m” (priority 1988, dated 1991).
Where two headings read alike, the source gives them in different places. Each block holds one compound with its values, some of them ahead of it.

Columns and labels:
[1] = Plasma binding study (PD10 column), human plasma; format: in vitro ADME; conditions: for percent recovery of Tc99m activity: human, plasma; for binding to / interaction with human plasma: in words
Procedure: (§1) 1 ml sample of guinea pig or human plasma or saline (control) were added to 2 ml Eppendorf tubes. To these were then added 100 ul aliquots of the ^99m Tc preparation being studied. Mixing was performed by inverting the tubes several times. A 50 ul sample was then taken for counting and the remainder of the sample (1050 ul) was quantitatively transferred to the top of the PD10 column. The sample was allowed to enter the column matrix and then washed in with 1.5 mls saline. Initially a 2.5 ml aliquot was collected for counting, (dead volume) subsequently 0.5 ml aliquots were collected until a total volume of 16 mls had been used to elute the column. […] Collected fractions were counted in a γ well counter and a graph plotted of percentage recovery was calculated from initial preloading sample and cumulative counts.

[2] = rat, in vivo
[3] = guinea pig, in vivo
[4] = Hydrophilicity, statement in words; format: physicochemical; conditions: compared with complex TcL2O2+ (L=P53), as indicated by urinary output
[5] = Rat biodistribution of Tc-99m complexes
[6] = Heart uptake and urinary output, statement in words; conditions: species not stated
[7] = Protein binding, statement in words; format: in vitro ADME
[8] = guinea pig, serum
Procedure: as §1

[9] = saline
Procedure: as §1

[10] = in vivo
[11] = Guinea pig biodistribution of Tc-99m complexes; conditions: 60 min p.i.

Structure (SMILES): CCOCC[P+]1(CCOCC)CC[P+](CCOCC)(CCOCC)[Tc-3]12([Cl])([Cl])[P+](CCOCC)(CCOCC)CC[P+]2(CCOCC)CCOCC
- percent recovery of Tc99m activity [1]: 93.8%
- binding to / interaction with human plasma [1]: possible slight interaction
- blood and liver clearance [2]: good
- heart uptake [2]: good heart uptake
- wash-out from heart [2]: washes out of the respective hearts
- Blood ([2]; 2 min): 5.24 % Injected dose/organ
- Heart ([2]; 2 min): 1.51 % Injected dose/organ
- Heart/Blood Counts/Gram Ratio ([2]; 2 min): 3.90
- Heart/Liver Counts/Gram Ratio ([2]; 2 min): 0.64
- Heart/Muscle Counts/Gram Ratio ([2]; 2 min): 4.68
- Kidney + Urine ([2]; 2 min): 4.48 % Injected dose/organ
- Liver ([2]; 2 min): 28.87 % Injected dose/organ
- Liver + GI ([2]; 2 min): 41.13 % Injected dose/organ
- Lung ([2]; 2 min): 1.45 % Injected dose/organ
- Muscle ([2]; 2 min): 34.92 % Injected dose/organ
- Blood ([2]; 60 min): 0.71 % Injected dose/organ
- Heart ([2]; 60 min): 0.16 % Injected dose/organ
- Heart/Blood Counts/Gram Ratio ([2]; 60 min): 3.09
- Heart/Liver Counts/Gram Ratio ([2]; 60 min): 0.46
- Heart/Muscle Counts/Gram Ratio ([2]; 60 min): 1.41
- Kidney + Urine ([2]; 60 min): 4.95 % Injected dose/organ
- Liver ([2]; 60 min): 4.78 % Injected dose/organ
- Liver + GI ([2]; 60 min): 61.34 % Injected dose/organ
- Lung ([2]; 60 min): 0.47 % Injected dose/organ
- Muscle ([2]; 60 min): 11.68 % Injected dose/organ
- blood and liver clearance [3]: good
- heart uptake [3]: good heart uptake
- wash-out from heart [3]: washes out of the respective hearts
- Blood ([3]; 2 min): 3.50 % Injected dose/organ
- Heart ([3]; 2 min): 1.89 % Injected dose/organ
- Heart/Blood Counts/Gram Ratio ([3]; 2 min): 12.72
- Heart/Liver Counts/Gram Ratio ([3]; 2 min): 2.13
- Heart/Muscle Counts/Gram Ratio ([3]; 2 min): 4.48
- Kidney + Urine ([3]; 2 min): 6.98 % Injected dose/organ
- Liver ([3]; 2 min): 13.74 % Injected dose/organ
- Liver + GI ([3]; 2 min): 18.72 % Injected dose/organ
- Lung ([3]; 2 min): 3.11 % Injected dose/organ
- Muscle ([3]; 2 min): 61.65 % Injected dose/organ
- Blood ([3]; 60 min): 0.58 % Injected dose/organ
- Heart ([3]; 60 min): 0.13 % Injected dose/organ
- Heart/Blood Counts/Gram Ratio ([3]; 60 min): 5.35
- Heart/Liver Counts/Gram Ratio ([3]; 60 min): 0.72
- Heart/Muscle Counts/Gram Ratio ([3]; 60 min): 1.13
- Kidney + Urine ([3]; 60 min): 3.20 % Injected dose/organ
- Liver ([3]; 60 min): 3.16 % Injected dose/organ
- Liver + GI ([3]; 60 min): 62.38 % Injected dose/organ
- Lung ([3]; 60 min): 0.30 % Injected dose/organ
- Muscle ([3]; 60 min): 15.16 % Injected dose/organ

- hydrophilicity [4]: substantially higher hydrophilicity
- Blood ([5]; 2 min p.i.): 18.8 % Injected dose/organ
- Heart ([5]; 2 min p.i.): 0.44 % Injected dose/organ
- Heart/Blood Counts/Gram Ratio ([5]; 2 min p.i.): 0.35
- Heart/Liver Counts/Gram Ratio ([5]; 2 min p.i.): 1.71
- Liver ([5]; 2 min p.i.): 3.62 % Injected dose/organ
- Blood ([5]; 60 min p.i.): 0.77 % Injected dose/organ
- Heart ([5]; 60 min p.i.): 0.09 % Injected dose/organ
- Heart/Blood Counts/Gram Ratio ([5]; 60 min p.i.): 1.82
- Heart/Liver Counts/Gram Ratio ([5]; 60 min p.i.): 0.88
- Liver ([5]; 60 min p.i.): 1.35 % Injected dose/organ
- heart uptake [6]: low heart uptake
- urinary output [6]: high urinary output
Structure (SMILES): COCCCP(CCCOC)CCP(CCCOC)CCCOC [Compound 3]

Structure (SMILES): CCOCC[P+]1(CCOCC)CC[P+](CCOCC)(CCOCC)[Tc-3]12(=[O])(=[O])[P+](CCOCC)(CCOCC)CC[P+]2(CCOCC)CCOCC [[TcO2 (P53)2]^+]
- percent recovery of Tc99m activity [1]: 65.23%
- binding to / interaction with human plasma [1]: no significant binding
- protein binding [7]: low protein binding
- Blood ([2]; 2 min): 2.25 % Injected dose/organ
- Brian ([2]; 2 min): 0.03 % Injected dose/organ
- Heart ([2]; 2 min): 1.66 % Injected dose/organ
- Heart/Muscle Counts/Gram Ratio ([2]; 2 min): 5.94
- Kidney + Urine ([2]; 2 min): 13.2 % Injected dose/organ
- Liver ([2]; 2 min): 14.1 % Injected dose/organ
- Liver + GI ([2]; 2 min): 37.8 % Injected dose/organ
- Lung ([2]; 2 min): 1.44 % Injected dose/organ
- Muscle ([2]; 2 min): 31.6 % Injected dose/organ
- Blood ([2]; 60 min): 0.28 % Injected dose/organ
- Brian ([2]; 60 min): 0.02 % Injected dose/organ
- Heart ([2]; 60 min): 1.68 % Injected dose/organ
- Heart/Blood Counts/Gram Ratio ([2]; 60 min): 86.4
- Heart/Liver Counts/Gram Ratio ([2]; 60 min): 14.4
- Heart/Lung Counts/Gram Ratio ([2]; 60 min): 4.3
- Heart/Muscle Counts/Gram Ratio ([2]; 60 min): 5.74
- Kidney + Urine ([2]; 60 min): 9.29 % Injected dose/organ
- Liver + GI ([2]; 60 min): 42.5 % Injected dose/organ
- Lung ([2]; 60 min): 0.65 % Injected dose/organ
- Muscle ([2]; 60 min): 31.6 % Injected dose/organ
- Blood ([3]; 2 min): 3.11 % Injected dose/organ
- Heart ([3]; 2 min): 1.33 % Injected dose/organ
- Heart/Blood Counts/Gram Ratio ([3]; 2 min): 10.9
- Heart/Liver Counts/Gram Ratio ([3]; 2 min): 1.90
- Heart/Lung Counts/Gram Ratio ([3]; 2 min): 1.2
- Heart/Muscle Counts/Gram Ratio ([3]; 2 min): 6.12
- Kidney + Urine ([3]; 2 min): 16.7 % Injected dose/organ
- Liver ([3]; 2 min): 11.6 % Injected dose/organ
- Liver + GI ([3]; 2 min): 38.7 % Injected dose/organ
- Lung ([3]; 2 min): 1.14 % Injected dose/organ
- Muscle ([3]; 2 min): 30.0 % Injected dose/organ
- Blood ([3]; 60 min): 0.41 % Injected dose/organ
- Heart ([3]; 60 min): 0.99 % Injected dose/organ
- Heart/Blood Counts/Gram Ratio ([3]; 60 min): 61.9
- Heart/Liver Counts/Gram Ratio ([3]; 60 min): 7.51
- Heart/Muscle Counts/Gram Ratio ([3]; 60 min): 4.10
- Kidney + Urine ([3]; 60 min): 16.1 % Injected dose/organ
- Liver ([3]; 60 min): 2.13 % Injected dose/organ
- Liver + GI ([3]; 60 min): 44.6 % Injected dose/organ
- Lung ([3]; 60 min): 0.47 % Injected dose/organ
- Muscle ([3]; 60 min): 43.4 % Injected dose/organ
- percent recovery of Tc99m activity [8]: 90.34%
- percent recovery of Tc99m activity [9]: 90.82%
- heart uptake [10]: good heart uptake
- Heart/Blood Counts/Gram Ratio ([5]; 2 min p.i.): 10.5
- Heart/Liver Counts/Gram Ratio ([5]; 2 min p.i.): 1.52
- Heart/Lung Counts/Gram Ratio ([5]; 2 min p.i.): 2.0
- Liver ([5]; 60 min p.i.): 1.62 % Injected dose/organ
- Heart/Lung Counts/Gram Ratio [11]: 2.0
